# The source made the active and inactive calls.
# Key:
# [1] = biological target: T1, Apoptotic protease-activating factor 1 (Homo sapiens, UniProt O14727); assay type: functional
# T1 sequence (O14727 whole entry): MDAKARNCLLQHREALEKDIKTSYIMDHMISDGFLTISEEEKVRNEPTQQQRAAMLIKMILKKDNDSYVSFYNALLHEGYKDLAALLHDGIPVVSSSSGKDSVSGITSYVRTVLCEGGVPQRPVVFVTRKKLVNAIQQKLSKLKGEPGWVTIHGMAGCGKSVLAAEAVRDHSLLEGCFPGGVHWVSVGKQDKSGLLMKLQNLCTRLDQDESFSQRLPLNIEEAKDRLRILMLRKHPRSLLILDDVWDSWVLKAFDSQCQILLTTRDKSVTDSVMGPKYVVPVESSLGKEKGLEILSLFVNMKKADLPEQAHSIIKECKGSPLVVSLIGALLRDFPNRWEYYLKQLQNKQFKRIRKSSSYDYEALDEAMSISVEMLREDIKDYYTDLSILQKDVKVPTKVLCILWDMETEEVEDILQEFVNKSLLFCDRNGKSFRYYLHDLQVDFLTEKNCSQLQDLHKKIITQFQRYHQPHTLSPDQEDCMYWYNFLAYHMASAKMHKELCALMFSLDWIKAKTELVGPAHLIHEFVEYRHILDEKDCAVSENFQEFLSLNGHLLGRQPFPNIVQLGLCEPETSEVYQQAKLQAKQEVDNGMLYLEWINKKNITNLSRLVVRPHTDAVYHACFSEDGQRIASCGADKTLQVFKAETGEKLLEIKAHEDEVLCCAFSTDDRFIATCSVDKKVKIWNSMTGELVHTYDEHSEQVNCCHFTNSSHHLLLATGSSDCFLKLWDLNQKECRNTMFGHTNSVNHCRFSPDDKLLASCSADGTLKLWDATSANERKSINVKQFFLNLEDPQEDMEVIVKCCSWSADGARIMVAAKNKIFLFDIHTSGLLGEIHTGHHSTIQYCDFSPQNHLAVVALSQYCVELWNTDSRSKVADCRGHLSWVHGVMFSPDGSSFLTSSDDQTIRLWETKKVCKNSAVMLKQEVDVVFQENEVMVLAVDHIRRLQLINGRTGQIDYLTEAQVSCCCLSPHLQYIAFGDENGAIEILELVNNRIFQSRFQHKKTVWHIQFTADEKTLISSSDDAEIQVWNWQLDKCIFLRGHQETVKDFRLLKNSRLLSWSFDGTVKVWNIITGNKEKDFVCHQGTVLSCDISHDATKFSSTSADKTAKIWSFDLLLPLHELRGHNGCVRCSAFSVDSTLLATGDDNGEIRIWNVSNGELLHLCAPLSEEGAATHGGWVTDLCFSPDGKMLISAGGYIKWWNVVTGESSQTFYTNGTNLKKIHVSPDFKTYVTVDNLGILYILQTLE
# [2] = tested on: Escherichia coli; experiment: microbe, parasite or virus in culture
# [3] = tested on: HEK293; experiment: inhibitors of LMP1-driven NF-kB reporter, dose response, cell-based, HEK293, luciferase, cherry-pick (AID 588343); assay type: functional; details: Homo sapiens
# [4] = NIH-3T3 fibroblast cytotoxicity, dose response, cytotoxicity control, cell-based, fluorescence, Alamar Blue, secondary assay (AID 2327); assay type: functional;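 also: NIH-3T3 mouse fibroblasts cultured with fluconazole at 8 µg/mL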
# [5] = C. albicans growth with fluconazole, confirmation, fluorescence, retest (AID 2467); assay type: functional, cell-based
# [6] = biological target: T2, Caspase-3 (Homo sapiens, UniProt P42574); assay type: functional;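 also: Dose-response selectivity test against caspase-3 for candidate inhibitors of sentrin-specific proteases (SENPs)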
# T2 sequence (P42574 whole entry): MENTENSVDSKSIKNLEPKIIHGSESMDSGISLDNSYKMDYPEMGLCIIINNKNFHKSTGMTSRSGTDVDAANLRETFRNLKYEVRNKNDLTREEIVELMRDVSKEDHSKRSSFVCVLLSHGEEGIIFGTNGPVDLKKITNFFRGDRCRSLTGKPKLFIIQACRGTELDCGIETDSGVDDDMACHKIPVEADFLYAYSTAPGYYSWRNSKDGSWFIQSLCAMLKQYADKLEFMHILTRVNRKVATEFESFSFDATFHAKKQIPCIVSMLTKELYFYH
# [7] = biological target: T3, Sentrin-specific protease 7 (Homo sapiens, UniProt Q9BQF6); assay type: functional;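 also: Luminescence-based dose-response confirmation of ultra-high-throughput screening hits, measuring inhibition of SENP7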
# T3 sequence (Q9BQF6 whole entry): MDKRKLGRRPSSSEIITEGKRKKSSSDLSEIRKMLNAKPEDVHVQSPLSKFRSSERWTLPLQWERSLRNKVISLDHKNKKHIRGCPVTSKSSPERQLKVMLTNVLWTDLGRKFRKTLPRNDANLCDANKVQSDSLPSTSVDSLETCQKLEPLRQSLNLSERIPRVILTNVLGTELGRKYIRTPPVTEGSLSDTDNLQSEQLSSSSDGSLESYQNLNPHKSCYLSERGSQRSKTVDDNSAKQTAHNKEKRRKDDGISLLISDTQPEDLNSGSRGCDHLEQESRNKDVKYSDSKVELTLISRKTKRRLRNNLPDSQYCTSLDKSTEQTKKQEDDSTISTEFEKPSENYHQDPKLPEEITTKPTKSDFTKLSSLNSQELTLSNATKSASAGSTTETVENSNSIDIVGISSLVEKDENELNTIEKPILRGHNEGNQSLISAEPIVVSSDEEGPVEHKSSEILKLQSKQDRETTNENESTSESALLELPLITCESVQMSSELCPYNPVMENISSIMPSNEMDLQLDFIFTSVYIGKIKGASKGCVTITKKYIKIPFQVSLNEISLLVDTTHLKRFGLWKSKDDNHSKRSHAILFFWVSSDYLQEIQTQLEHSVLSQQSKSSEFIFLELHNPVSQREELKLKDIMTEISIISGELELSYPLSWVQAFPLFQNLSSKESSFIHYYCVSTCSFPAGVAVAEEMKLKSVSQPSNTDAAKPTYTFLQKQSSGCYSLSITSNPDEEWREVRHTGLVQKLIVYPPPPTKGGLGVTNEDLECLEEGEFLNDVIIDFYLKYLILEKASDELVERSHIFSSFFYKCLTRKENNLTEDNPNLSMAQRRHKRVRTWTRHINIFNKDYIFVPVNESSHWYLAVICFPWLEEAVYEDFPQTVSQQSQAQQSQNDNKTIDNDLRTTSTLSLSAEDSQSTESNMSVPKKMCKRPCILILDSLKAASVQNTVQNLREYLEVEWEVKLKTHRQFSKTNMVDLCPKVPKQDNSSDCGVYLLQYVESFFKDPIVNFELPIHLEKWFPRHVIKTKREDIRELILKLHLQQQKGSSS
# [8] = biological target: T4, Sentrin-specific protease 6 (Homo sapiens, UniProt Q9GZR1); assay type: functional;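 also: Luminescence-based dose-response confirmatory assay of SENP6 inhibition, following up an ultra-high-throughput screen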
# T4 sequence (Q9GZR1 whole entry): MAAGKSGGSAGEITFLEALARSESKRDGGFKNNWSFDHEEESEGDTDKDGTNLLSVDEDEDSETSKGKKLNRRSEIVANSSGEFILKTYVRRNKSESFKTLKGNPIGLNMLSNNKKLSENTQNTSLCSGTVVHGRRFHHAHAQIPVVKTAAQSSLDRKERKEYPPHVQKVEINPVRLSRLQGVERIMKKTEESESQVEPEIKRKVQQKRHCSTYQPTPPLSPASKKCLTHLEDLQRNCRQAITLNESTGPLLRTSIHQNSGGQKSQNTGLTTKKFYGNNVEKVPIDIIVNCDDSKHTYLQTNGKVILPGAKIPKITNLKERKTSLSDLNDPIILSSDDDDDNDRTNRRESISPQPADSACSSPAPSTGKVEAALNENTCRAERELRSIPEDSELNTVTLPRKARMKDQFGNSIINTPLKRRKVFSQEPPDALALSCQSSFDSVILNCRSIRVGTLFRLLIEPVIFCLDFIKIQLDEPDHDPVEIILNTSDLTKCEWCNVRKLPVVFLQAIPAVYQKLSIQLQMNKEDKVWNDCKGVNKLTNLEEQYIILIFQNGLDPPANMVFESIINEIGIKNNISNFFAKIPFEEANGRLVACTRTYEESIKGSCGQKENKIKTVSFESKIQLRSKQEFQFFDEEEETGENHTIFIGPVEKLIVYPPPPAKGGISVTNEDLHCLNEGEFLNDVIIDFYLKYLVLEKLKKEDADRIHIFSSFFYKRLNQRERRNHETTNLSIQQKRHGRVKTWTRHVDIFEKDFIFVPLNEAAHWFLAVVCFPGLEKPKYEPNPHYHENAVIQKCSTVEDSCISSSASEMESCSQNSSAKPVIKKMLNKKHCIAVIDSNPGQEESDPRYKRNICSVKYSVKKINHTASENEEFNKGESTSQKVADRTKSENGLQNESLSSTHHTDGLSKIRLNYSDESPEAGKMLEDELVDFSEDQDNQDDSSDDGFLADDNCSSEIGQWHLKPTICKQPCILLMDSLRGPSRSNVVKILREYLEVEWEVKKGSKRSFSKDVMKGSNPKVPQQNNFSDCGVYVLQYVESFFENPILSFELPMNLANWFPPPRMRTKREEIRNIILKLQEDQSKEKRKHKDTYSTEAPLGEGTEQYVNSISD
# [9] = biological target: T5, Sentrin-specific protease 8 (Homo sapiens, UniProt Q96LD8); assay type: functional;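 also: luminescence read-out of SENP8 inhibition, dose-response confirmation following an ultra-high-throughput screen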
# T5 sequence (Q96LD8 whole entry): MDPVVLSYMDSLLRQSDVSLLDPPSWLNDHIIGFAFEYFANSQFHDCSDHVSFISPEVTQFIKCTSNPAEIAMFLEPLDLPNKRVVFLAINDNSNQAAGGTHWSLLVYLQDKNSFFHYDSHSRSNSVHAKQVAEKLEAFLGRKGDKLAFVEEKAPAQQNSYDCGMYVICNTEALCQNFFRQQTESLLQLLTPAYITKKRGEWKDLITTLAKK
# [10] = biological target: T6, Leucine aminopeptidase (Plasmodium falciparum 3D7, UniProt Q8IL11); experiment: P. falciparum M17LAP inhibitors, primary screen, biochemical, fluorogenic H-Leu-NHMec substrate, 1536-well (AID 1619); assay type: functional
# T6 sequence (Q8IL11 whole entry): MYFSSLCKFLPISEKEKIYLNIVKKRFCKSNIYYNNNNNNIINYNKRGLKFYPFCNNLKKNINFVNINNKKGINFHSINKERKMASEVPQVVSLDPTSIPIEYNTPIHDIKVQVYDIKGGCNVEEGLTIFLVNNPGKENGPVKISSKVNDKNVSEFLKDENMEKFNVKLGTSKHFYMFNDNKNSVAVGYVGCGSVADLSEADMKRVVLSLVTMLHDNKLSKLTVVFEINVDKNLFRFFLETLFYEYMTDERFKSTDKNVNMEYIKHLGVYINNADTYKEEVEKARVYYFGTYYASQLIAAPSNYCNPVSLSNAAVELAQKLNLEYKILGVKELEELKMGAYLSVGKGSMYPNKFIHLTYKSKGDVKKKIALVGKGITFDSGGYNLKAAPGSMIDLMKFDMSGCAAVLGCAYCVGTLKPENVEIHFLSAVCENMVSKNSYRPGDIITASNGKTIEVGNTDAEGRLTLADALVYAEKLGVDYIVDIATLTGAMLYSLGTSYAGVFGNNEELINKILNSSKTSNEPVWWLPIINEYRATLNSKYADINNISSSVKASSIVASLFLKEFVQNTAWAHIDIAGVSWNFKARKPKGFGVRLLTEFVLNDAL
# [11] = biological target: T7, RNA-binding protein pos-1 (Caenorhabditis elegans, UniProt G5EF15); experiment: inhibitors of POS-1/mex-3 RNA binding, dose response, biochemical, fluorescence polarization (AID 1964);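 also: purified POS-1 fused to maltose binding protein made in E. coli; potency of compounds blocking POS-1 binding to fluorescent RNA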
# T7 sequence (G5EF15 whole entry): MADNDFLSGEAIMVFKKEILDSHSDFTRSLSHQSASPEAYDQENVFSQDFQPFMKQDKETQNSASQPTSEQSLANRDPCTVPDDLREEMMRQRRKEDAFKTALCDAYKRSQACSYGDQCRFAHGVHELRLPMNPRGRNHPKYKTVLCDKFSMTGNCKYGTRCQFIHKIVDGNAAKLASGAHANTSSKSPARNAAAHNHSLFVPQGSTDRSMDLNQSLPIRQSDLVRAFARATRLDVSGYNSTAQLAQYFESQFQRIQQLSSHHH
# [12] = biological target: T8, Zinc finger protein mex-5 (Caenorhabditis elegans, UniProt Q9XUB2); experiment: MEX-5/TCR-2 RNA interaction inhibitors, dose response, biochemical, C. elegans, fluorescence polarization (AID 1960)
# T8 sequence (Q9XUB2 whole entry): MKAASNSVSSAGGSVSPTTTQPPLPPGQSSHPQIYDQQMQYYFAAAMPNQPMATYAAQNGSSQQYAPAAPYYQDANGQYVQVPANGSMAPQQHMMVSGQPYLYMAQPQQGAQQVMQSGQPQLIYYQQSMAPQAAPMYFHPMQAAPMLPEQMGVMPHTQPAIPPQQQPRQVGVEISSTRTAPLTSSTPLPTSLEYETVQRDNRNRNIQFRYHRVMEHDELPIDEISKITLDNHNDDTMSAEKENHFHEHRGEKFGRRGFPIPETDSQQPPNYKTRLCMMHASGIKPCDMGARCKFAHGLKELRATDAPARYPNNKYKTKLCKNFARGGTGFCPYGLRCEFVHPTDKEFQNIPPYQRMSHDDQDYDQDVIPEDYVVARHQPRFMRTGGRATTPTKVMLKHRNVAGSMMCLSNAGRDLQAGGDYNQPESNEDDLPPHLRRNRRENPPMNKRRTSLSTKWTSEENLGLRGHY
# [13] = biological target: Dual specificity tyrosine-phosphorylation-regulated kinase 1A (Rattus norvegicus, UniProt Q63470); assay type: biochemical, Homo sapiens
# [14] = tested on: Vero; experiment: Vero cell cytotoxicity, cytotoxicity control for flavivirus capping enzyme inhibitors (AID 588742); assay type: functional; details: Chlorocebus sabaeus
smiles,measurement,setting,value
Clc1ccccc1-c1nn2c(-c3ccncc3)nnc2s1,IC50,[1],19.1 µM (active)
same,AC50,[2],23.3 µM (active)
O=C(O)/C=C/c1ccc2ccccc2n1,AC50,[3],47.7 µM (active)
CCn1c2ccccc2c2cc(/C=N/n3c(C)nnc3C)ccc21,AC50,[3],34.2 µM (active)
CCCCCc1ccc(-c2ccc(/C=C/C(=O)O)cc2)nc1,EC50,[4],> 160 µM (inconclusive)
same,EC50,[5],2.03 µM (active)
same,IC50,[6],35.4 µM (active)
same,IC50,[7],6.37 µM (active)
same,IC50,[8],11.2 µM (active)
same,IC50,[9],8.8 µM (active)
same,AC50,[3],20.8 µM (active)
COc1ccc(Nc2ncnc3nc[nH]c23)cc1OC,IC50,[10],48.5 µM (active)
same,EC50,[11],> 300 µM (not active)
same,EC50,[12],23.9 µM (active)
same,AC50,[13],12 µM (active)
COc1cc(/C=C2\SC(=O)NC2=O)ccc1Oc1ccc([N+](=O)[O-])cc1[N+](=O)[O-],CC50,[14],> 40 µM (active)
same,AC50,[13],7.72 µM (active)
